Measured values as given in patent US12011459B2, “Methods for manufacturing T cells by direct sorting and compositions thereof” (Immatics US, Inc., priority 2019, dated 2024).
Several values for one entry are separate records, joined by “and”; a condition that tells them apart may be missing. Equal entries are not always repeated.

Experiments:
[1] = system: αCol6A3 T cells spiked in PBMC (1:1×10^5); experiment: Col6A3-002 2D tetramer staining of αCol6A3 T cells spiked in PBMC, condition #1; format: cell-based; conditions: staining at 37° C.
Protocol: Condition #1: with DAS treatment+irrelevant peptide tetramer mix, staining at 37° C.
Sample #2: αCol6A3 T cells spiked in PBMC (1:1×10^5), about 2×10^6 CD45+cells acquired

[2] = system: Col6A3 REP1 cells (αCol6A3 T cells); experiment: Col6A3-002 2D tetramer staining of Col6A3 REP1 cells with dasatinib treatment, flow cytometry; format: cell-based; conditions: for background staining of BV421/APC double-positive irrelevant peptide T cells (Q2): bench and centrifugation at 4° C.
Protocol: To determine which staining conditions that may provide higher staining index (SI), indicating better separation of cells stained positive from cells stained negative, and lower false negative rate, Col6A3 REP1 cells, which were prepared by rapid expansion protocol (REP), were stained±DAS treatment (at 37° C.), ±irrelevant peptide tetramer mix, and staining at RT or 37° C.
Staining index (SI) may be calculated by using formula (I): SI=(mean PE+mean BV421 2Dtet+)−(mean PE+mean BV421 2Dtet−)/2×(SD PE+SD BV421 2Dtet−). […] (P=0.316695), and ±irrelevant peptide tetramer mix (P=0.597223).
The estimation per 1×10^6 based on flow %, which indicates numbers of peptide-specific T cells per 1×10^6 of CD45+ cells, may be calculated by the formula: (2Dtet+%×1×10^6/100)−((2Dtet+%×1×10^6/100)×irrelevant peptide tetramer mix+%/100)). Table 14 summarizes the estimations under the staining conditions A-G. DAS treatment was performed at 37° C. for 30 minutes.

[3] = system: Col6A3 REP1 cells (αCol6A3 T cells); experiment: as above; format: cell-based; conditions: Col6A3 PEP1 cells
PBMC = experiment: Col6A3-002 2D tetramer staining of PBMC with dasatinib treatment, flow cytometry; format: cell-based, human; conditions: for 2D PE/BV421 Tet-positive and irrelevant peptide APC tetramer-negative events: 4° C.
Protocol: To compare the effects of PKI and temperatures on pMHC multimer staining, healthy donor peripheral blood mononuclear cells (PBMCs) were pretreated with 50 nM Dasatinib (FIG. 21A) or untreated (FIG. 21B) and then stained with two Col6A3-002 peptide (FLLDGSANV (SEQ ID NO: 141)) (Col) tetramers (2Dtet) conjugated to streptavidin BV421 and PE, and five different irrelevant APC tetramers (peptide 1, peptide 2, peptide 3, peptide 4, and peptide 5) at either 37° C. (FIG. 21A) or room-temperature (RT) (FIG. 21B) for 30 minutes. Following tetramer staining, samples were counterstained with tetramer stabilizing antibodies staining against PE and APC at 4° C., followed by staining with anti-CD45 PE-Cy7 antibody at 4° C.
To determine which staining conditions that may provide lowest background and lowest false positive rate, PBMC were stained with or without PKI treatment, e.g., dasatinib (DAS), with or without irrelevant peptide tetramer mix at different tetramer staining temperatures (Hadrup et al., Nat. Methods, 2009, 6:520-526; the content of which is hereby incorporated by reference in its entirety). For example, PBMC cells were stained with 2D Tet (PE+BV421) in the presence or in the absence of irrelevant peptide tetramer mix, e.g., five different irrelevant peptides (e.g., Col6A3-015 (YLMDDFSSL (SEQ ID NO: 16)), MAG-003 (KVLEHVVRV (SEQ ID NO: 118)), MAGEC2-001 (TLDEKVAEL (SEQ ID NO: 161)), MXRA5-003 (LLWGHPRVALA (SEQ ID NO: 18), and MAGEA1-003 (KVLEYVIKV (SEQ ID NO: 105)) APC tetramers±DAS treatment, at 37° C. or at room temperature (RT). DAS treatments were performed at 37° C.
To investigate PBMC staining under conditions D and G, PBMC (12.5×10^6 cells/ml) obtained from 4 donors were stained±DAS treatment (50 nM, at 37° C.), Col6A3-002 BV421 tetramer (3 μg/ml) and Col6A3-002 PE Tetramer (2.5 μg/ml), fluorochrome-labeled anti-CD45 antibody, e.g., PE-Cy7 mouse anti-human CD45 (BD Biosciences), Col6A3-002 BV421 tetramer (3 μg/ml), and APC irrelevant peptides (n=5, e.g., Col6A3-015 (YLMDDFSSL (SEQ ID NO: 16)), MAG-003 (KVLEHWRV (SEQ ID NO: 118)), MAGEC2-001 (TLDEKVAEL (SEQ ID NO: 161)), MXRA5-003 (LLWGHPRVALA (SEQ ID NO: 18), and MAGEA1-003 (KVLEYVIKV (SEQ ID NO: 105)) tetramer mix (3 μg/ml) with all staining, spins, and washes at 4° C.
The experiments shown in FIGS. 37A-37D were repeated using a different fluorochrome-labeled anti-CD45 antibody, e.g., PE-Cy™7 mouse anti-human CD45 (BD Biosciences). PBMC (10×10^6 cells/nil) obtained from 4 donors were stained with or without DAS treatment (50 nM, at 37° C.), BV421 (3 μg/ml), Col6A3-002 2D Tet (PE+BV421) (2.5 μg/ml), PerCP-Cy™5.5 mouse anti-human CD45 (BD Biosciences), Col6A3-002 BV421 tetramer (3 μg/ml), and APC (n=5) irrelevant tetramer mix (3 μg/ml) with all staining, spins, and washes at 4° C.

[4] = DAS treatment + irrelevant peptide tetramer mix
[5] = DAS treatment, staining at 37° C., with irrelevant peptide APC tetramer mix, listed as DAS
[6] = DAS treatment, staining at RT, with irrelevant peptide APC tetramer mix
[7] = PBMC, DAS treatment, staining at RT, with irrelevant peptide APC tetramer mix

Which results are given for `Cc1nc(Nc2ncc(C(=O)Nc3c(C)cccc3Cl)s2)cc(N2CCN(CCO)CC2)n1` [Dasatinib, dasatinib]?
2D PE/BV421 Tet double-positive cells (Q2) of CD45+ cells [1, 4]: 0.035%; APC-negative/BV421-positive cells (true αCol6A3 T cells, Q1) in Q2 cells [1, 4]: about 2.58%; BV421/APC double-positive irrelevant peptide T cells in Q2 cells [1, 4]: 97.4%; one αCol6A3 T cell in N CD45+ cells [1, 4]: 1×10^5 CD45+ cells; 2D PE/BV421 Tet-positive and irrelevant peptide APC tetramer-negative events ([1]; in 2×10^6 CD45+ cells acquired, DAS): 18 events; irrelevant peptide positive T cells in Q2 cells [2, 5]: 6.38% and 3.18%; staining index (SI) [2, 5]: 19.0 and 15.6; 2D Tet (PE+BV421) double-positive cells (Q2) of CD45+ cells [2, 6]: 55.8%; APC-negative/BV421-positive cells (true Col6A3 REP1 cells, Q1) in Q2 cells [2, 6]: about 78.4%; irrelevant peptide positive T cells in Q2 cells [2, 6]: 21.6%; staining index (SI) [2, 6]: 24.0; Estimation per 1e6 based on flow % (peptide-specific T cells per 1×10^6 CD45+ cells) ([2]; condition A: Dasatinib +, Tet stain 37, bench RT, centrifuge RT): 2.24 × 10^5 per 1e6; background staining of BV421/APC double-positive irrelevant peptide T cells (Q2) ([2]; condition C: DAS, Tet staining at 37° C.): 2.01%; Estimation per 1e6 based on flow % (peptide-specific T cells per 1×10^6 CD45+ cells) ([2]; condition C: Dasatinib +, Tet stain 37, bench 4, centrifuge 4): 5.61 × 10^5 per 1e6; background staining of BV421/APC double-positive irrelevant peptide T cells (Q2) ([2]; condition D: DAS, Tet staining): 13.7%; Estimation per 1e6 based on flow % (peptide-specific T cells per 1×10^6 CD45+ cells) ([2]; condition D: Dasatinib +, Tet stain 4, bench 4, centrifuge 4): 6.75 × 10^5 per 1e6; background staining of BV421/APC double-positive irrelevant peptide T cells (Q2) ([2]; condition F: DAS, Tet staining at RT): 3.07%; Estimation per 1e6 based on flow % (peptide-specific T cells per 1×10^6 CD45+ cells) ([2]; condition F: Dasatinib +, Tet stain RT, bench 4, centrifuge 4): 6.75 × 10^5 per 1e6; 2D Tet (PE+BV421)-positive and irrelevant peptide-negative cells in Q2 cells ([3]; DAS treatment, 4° C., FIG. 39): 95.8%; 2D Tet (PE+BV421) double-positive cells (Q2) of CD45+ cells ([3]; DAS treatment, all staining, spins, washes at 4° C., FIG. 39): 68.9%; 2D PE/BV421 Tet-positive and irrelevant peptide APC tetramer-negative events ([3]; in 206055 lymphocytes acquired, DAS, 4° C.): 135941 events; 2D PE/BV421 Tet-positive and irrelevant peptide APC tetramer-negative events (PBMC; PBMC sample S1, in 1.29×10^7 lymphocytes acquired, DAS): 128 events; 2D PE/BV421 Tet-positive and irrelevant peptide APC tetramer-negative events (PBMC; PBMC sample S2, in 6.09×10^6 lymphocytes acquired, DAS): 68 events; 2D PE/BV421 Tet-positive and irrelevant peptide APC tetramer-negative events (PBMC; PBMC sample S3, in 9.71×10^5 lymphocytes acquired, DAS): 23 events; 2D PE/BV421 Tet-positive and irrelevant peptide APC tetramer-negative events (PBMC; PBMC sample S4, in 5.35×10^6 lymphocytes acquired, DAS): 80 events; 2D Tet (PE+BV421) double-positive cells (Q2) of CD45+ cells (PBMC; PBMC, 50 nM dasatinib treatment, Tet staining at 37° C., with irrelevant peptide APC tetramer mix): 0.027%; 2D Tet (PE+BV421) double-positive cells (Q2) of CD45+ cells (PBMC; PBMC, DAS 50 nM at 37° C., all staining, spins, washes at 4° C., with irrelevant mix, FIG. 37A): 4.23E-3%; 2D Tet (PE+BV421)-positive and irrelevant peptide-negative cells in Q2 cells (PBMC; PBMC, DAS 50 nM, all staining, spins, washes at 4° C., FIG. 37A): 46.5%; 2D Tet (PE+BV421) double-positive cells (Q2) of CD45+ cells (PBMC; PBMC, DAS treatment, staining at 37° C., absence of irrelevant peptide APC tetramer mix): 0.19%; APC-negative/BV421-positive cells (true Col6A3-specific T cells, Q1) in Q2 cells (PBMC; PBMC, DAS treatment, staining at 37° C., with irrelevant peptide APC tetramer mix): 0.93%; irrelevant peptide positive T cells in the BV421/PE double-positive (Q2) cells (PBMC; PBMC, DAS treatment, staining at 37° C., with irrelevant peptide APC tetramer mix, listed as DAS): 98.2% and 99.1%; 2D Tet (PE+BV421) double-positive cells (Q2) of CD45+ cells (PBMC; PBMC, DAS treatment, staining at RT, absence of irrelevant peptide APC tetramer mix): 7.17E-3%; 2D Tet (PE+BV421) double-positive cells (Q2) of CD45+ cells (PBMC; [7]): 8.04E-3%; APC-negative/BV421-positive cells (true Col6A3-specific T cells, Q1) in Q2 cells (PBMC; [7]): about 4.76%; irrelevant peptide positive T cells in the BV421/PE double-positive (Q2) cells (PBMC; [7]): 95.2%; final frequency: one Col Tet+ T cell in N CD45+ cells (PBMC; PBMC, dasatinib treatment, staining at 37° C., with irrelevant APC tetramers): 4×10^5 CD45+ cells; 2D PE/BV421 Tet-positive and irrelevant peptide APC tetramer-negative events (PBMC; PBMC, in 4.78×10^6 lymphocytes acquired, DAS): 94 events; increase of MFI (PBMC; in ¼ of DAS-treated samples): about 2 ×; 2D PE/BV421 Tet-positive and irrelevant peptide APC tetramer-negative cells detected (PBMC; only PBMC, in 2×10^6 CD45+ cells acquired, DAS, staining at 37° C.): 5 cells
